The record followed here is EPA's ToxValDB 9.5 (doi:10.2903/j.efsa.2010.1565).

In one data set the test system is Canidae. The following applies: chronic; duration: 1 years; oral; Dog Other; organ weight.
A further data set deals with Rattus norvegicus. The settings on record: oral.
The next data set has as its system Daphnia magna. The settings on record: chronic/long-term; duration: 21 days; reproduction.
The next data set has as its system Typhlodromus pyri. The settings on record: not reported; other.
Another data set relates to Colinus virginianus. The settings on record: acute; oral; mortality.

Structures are written as SMILES. ≈ marks a conversion by molar mass, not a printed value.

Usually NOAEL stands for the highest tested level that showed no adverse finding. As a reminder, the LD50 is the dose at which mortality reaches 50%. Read a low LD50 as greater toxicity. As to `CCN(CC)C(=O)C(C)Oc1cccc2ccccc12` (configuration not stated) [Napropamide], the NOAEL in the data set on Canidae turned out to be 50 mg/kg-day; with Rattus norvegicus (chronic, duration: 2 years, body weight), 30 mg/kg-day. The 50% lethal dose (LD50) in the data set on Rattus norvegicus (acute, mortality) is 4680 mg/kg; with Colinus virginianus it was over 2250 mg/kg. For the same compound, the NOEC amounted to 4.3 mg/L in the data set with Daphnia magna; 60 mg/kg with Tagia sp. (chronic/long-term, reproduction); 1.1 mg/L with Oncorhynchus mykiss (chronic/long-term, duration: 28 days, growth). The same compound gave an LEL in the data set with Typhlodromus pyri of 4500 g/ha. For the same compound, the LC50 with Tagia sp. (acute, duration: 14 days, mortality) is 564 mg/kg; in the data set with Anas platyrhynchos (short-term, oral, feed, mortality) it was over 1570 mg/kg-day; with Oncorhynchus mykiss (acute, duration: 96 hours, mortality) it was 6.6 µg/mL (≈ 24.3 µM). Besides, in the data set with Anas platyrhynchos (reproductive, reproduction), the NOEL was found to be 309 mg/kg-day.
